21 compounds from patent US20250017935A1, “7,8-DIHYDRO-5H-1,6-NAPHTHYRIDINE DERIVATIVES AS POSITIVE ALLOSTERIC MODULATORS OF THE MUSCARINIC ACETYLCHOLINE RECEPTOR M4 FOR TREATING NEUROLOGICAL AND PSYCHIATRIC DISORDERS” (Vanderbilt University, priority 2021, published 2025) can be followed below.

For this assay, the target named is T1, Human M4 (Homo sapiens, UniProt P08173).
T1 construct: expressed in transfected cells; host or cells: CHO-K1 (ATCC), stably expressing hM4 and Gqi5
T1 sequence (P08173 1-479): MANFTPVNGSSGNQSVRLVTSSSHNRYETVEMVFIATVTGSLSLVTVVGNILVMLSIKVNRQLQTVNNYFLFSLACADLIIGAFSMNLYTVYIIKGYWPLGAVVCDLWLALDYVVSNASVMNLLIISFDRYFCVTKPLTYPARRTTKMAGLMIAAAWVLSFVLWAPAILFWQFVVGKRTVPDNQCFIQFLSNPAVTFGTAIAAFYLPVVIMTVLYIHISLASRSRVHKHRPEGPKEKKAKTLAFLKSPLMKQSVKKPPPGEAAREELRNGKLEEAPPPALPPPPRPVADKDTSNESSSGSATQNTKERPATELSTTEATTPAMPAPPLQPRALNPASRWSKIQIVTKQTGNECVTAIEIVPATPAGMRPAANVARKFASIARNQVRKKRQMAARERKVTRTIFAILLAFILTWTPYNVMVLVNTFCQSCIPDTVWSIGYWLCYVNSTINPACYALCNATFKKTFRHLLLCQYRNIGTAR
As to the kind of experiment: mAChR M4 cell-based functional assay (calcium flux, potentiation of EC20 acetylcholine response) in hM4-Gqi5 CHO-K1 cells. As to conditions: for Emax at 30 µM: % ACh maximum at 30 μM, human M4 CHO-K1 cells; for EC50: CHO-K1 cells transfected with human M4 and Gqi5, positive allosteric modulator activity, EC20 acetylcholine. As for the experimental part:
Human M4 cDNA, along with the chimeric G protein Gqi5, were transfected into Chinese hamster ovary (CHO-K1) cells purchased from the American Type Culture Collection using commercially available Lipofectamine 2000 transfection reagent (Dalby, B. et al., Methods (2004) 33(2), 95-103). hM4-Gqi5 cells were grown in Ham's F-12 medium containing 10% heat-inactivated fetal bovine serum (FBS), 20 mM HEPES, 50 μg/mL G418 sulfate (CAS #108321-42-2), and 500 μg/mL Hygromycin B. rM4-Gqi5 cells were grown in DMEM containing 10% heat-inactivated FBS, 20 mM HEPES, 400 μg/mL G418 sulfate, and 500 μg/mL Hygromycin B.
For high throughput measurement of agonist-evoked increases in intracellular calcium, CHO-K1 cells stably expressing muscarinic receptors were plated in growth medium lacking G418 sulfate and hygromycin at 15,000 cells/20 μL/well in Greiner 384-well black-walled, tissue culture (TC)-treated, clear-bottom plates (VWR). Cells were incubated overnight at 37° C. and 5% CO2. The next day, cells were washed using an ELX 405 (BioTek) with assay buffer; the final volume was then aspirated to 20 μL. Next, 20 μL of a 2.3 μM stock of Fluo-4/acetoxymethyl ester (Invitrogen, Carlsbad, CA), prepared as a 2.3 mM stock in DMSO and mixed in a 1:1 ratio with 10% (w/v) Pluronic F-127 and diluted in assay buffer, was added to the wells and the cell plates were incubated for 50 minutes at 37° C. and 5% CO2. Dye was removed by washing with the ELX 405 and the final volume was aspirated to 20 μL. Compound master plates were formatted in an 11 point concentration-response curve (CRC) format (1:3 dilutions) in 100% DMSO with a starting concentration of 10 mM using a BRAVO liquid handler (Agilent). Test compound CRCs were then transferred to daughter plates (240 nL) using the Echo acoustic plate reformatter (Labcyte, Sunnyvale, CA) and then diluted into assay buffer (40 μL) to a 2× stock using a Thermo Fisher Combi (Thermo Fisher Scientific, Waltham, MA).
Calcium flux was measured using the Functional Drug Screening System (FDSS) 6000 or 7000 (Hamamatsu Corporation, Tokyo, Japan) as an increase in the fluorescent static ratio. Compounds were applied to cells (20 μL, 2×) using the automated system of the FDSS at 2-4 seconds into the protocol and the data were collected at 1 Hz. […] Agonist activity was analyzed as a concentration-dependent increase in calcium mobilization upon compound addition. Positive allosteric modulator activity was analyzed as a concentration-dependent increase in the EC20 acetylcholine response. With the acetylcholine EC20 set as baseline, the test compound EC50 is determined as the concentration that produces an increase above baseline of 50% of the maximum increase in acetylcholine response elicted by the test compound. Antagonist activity was analyzed as a concentration-dependent decrease in the EC80 acetylcholine response. Concentration-response curves were generated using a four-parameter logistical equation in XLFit curve fitting software (IDBS, Bridgewater, NJ) for Excel (Microsoft, Redmond, WA) or Prism (GraphPad Software, Inc., San Diego, CA).
Compounds were synthesized as described above. Activity (EC50 and Emax) was determined in the mAChR M4 cell-based functional assay as described above and the data are shown in Table 5. The compound numbers correspond to the compound numbers used in Examples 1-13 and Tables 1, 2, and 3.

Regarding `Cc1noc2ncnc(N3CCc4ncc(N5CCCn6nccc65)cc4C3)c12` [Compound 45, 4-[3-(6,7-dihydro-5H-pyrazolo[1,5-a]pyrimidin-4-yl)-7,8-dihydro-5H-1,6-naphthyridin-6-yl]-3-methyl-isoxazolo[5,4-d]pyrimidine], the Emax at 30 µM was 93% and the EC50 turned out to be 90 nM.

Turning to `Cc1noc2ncnc(N3CCc4ncc(-c5cnn(C6CC6)c5)cc4C3)c12` [Compound 46, 4-[3-(1-cyclopropylpyrazol-4-yl)-7,8-dihydro-5H-1,6-naphthyridin-6-yl]-3-methyl-isoxazolo[5,4-d]pyrimidine], the Emax at 30 µM is 75% and the EC50 was determined as 370 nM.

`Cc1coc2ncnc(N3CCc4ncc(N5CCOc6ncccc65)cc4C3)c12` [Compound 47, 1-[6-(5-methylfuro[2,3-d]pyrimidin-4-yl)-7,8-dihydro-5H-1,6-naphthyridin-3-yl]-2,3-dihydropyrido[2,3-b][1,4]oxazine]: the Emax at 30 µM amounted to 125% and the EC50 worked out at 50 nM.

`Cc1ccc(-c2cnc3c(c2)CN(c2ncnc4occ(C)c24)CC3)cn1` [Compound 48, 5-methyl-4-[3-(6-methyl-3-pyridyl)-7,8-dihydro-5H-1,6-naphthyridin-6-yl]furo[2,3-d]pyrimidine]: the Emax at 30 µM turned out to be 102% and the EC50 was found to be 90 nM.

Take `Cc1ncc(-c2cnc3c(c2)CN(c2ncnc4occ(C)c24)CC3)s1` [Compound 49, 5-methyl-4-[3-(2-methylthiazol-5-yl)-7,8-dihydro-5H-1,6-naphthyridin-6-yl]furo[2,3-d]pyrimidine]: the Emax at 30 µM was determined as 68% and the EC50 stood at 130 nM.

For `Cc1noc2ncnc(N3CCc4ncc(N5CCOc6ncccc65)cc4C3)c12` [Compound 50, 1-[6-(3-methylisoxazolo[5,4-d]pyrimidin-4-yl)-7,8-dihydro-5H-1,6-naphthyridin-3-yl]-2,3-dihydropyrido[2,3-b][1,4]oxazine], the Emax at 30 µM came out at 100% and the EC50 turned out to be 240 nM.

`Cc1ccc(-c2cnc3c(c2)CN(c2ncnc4onc(C)c24)CC3)cn1` [Compound 51, 3-methyl-4-[3-(6-methyl-3-pyridyl)-7,8-dihydro-5H-1,6-naphthyridin-6-yl]isoxazolo[5,4-d]pyrimidine]: the Emax at 30 µM is 89% and the EC50 amounted to 510 nM.

As to `Cc1ncc(-c2cnc3c(c2)CN(c2ncnc4onc(C)c24)CC3)s1` [Compound 52, 3-methyl-4-[3-(2-methylthiazol-5-yl)-7,8-dihydro-5H-1,6-naphthyridin-6-yl]isoxazolo[5,4-d]pyrimidine], the Emax at 30 µM was 92% and the EC50 came to 550 nM.

Regarding `Cc1coc2ncnc(N3CCc4ncc(Cc5ccccc5F)cc4C3)c12` [Compound 53, 4-[3-[(2-fluorophenyl)methyl]-7,8-dihydro-5H-1,6-naphthyridin-6-yl]-5-methyl-furo[2,3-d]pyrimidine], the Emax at 30 µM came to 81% and the EC50 is 280 nM.

As to `Cc1coc2ncnc(N3CCc4ncc(Cc5cccc(F)c5)cc4C3)c12` [Compound 54, 4-[3-[(3-fluorophenyl)methyl]-7,8-dihydro-5H-1,6-naphthyridin-6-yl]-5-methyl-furo[2,3-d]pyrimidine], the Emax at 30 µM came to 78% and the EC50 was determined as 500 nM.

For `Cc1coc2ncnc(N3CCc4ncc(Nc5ccnn5C)cc4C3)c12` [Compound 55, 6-(5-methylfuro[2,3-d]pyrimidin-4-yl)-N-(2-methylpyrazol-3-yl)-7,8-dihydro-5H-1,6-naphthyridin-3-amine], the Emax at 30 µM turned out to be 94% and the EC50 amounted to 60 nM.

As for `Cc1coc2ncnc(N3CCc4ncc(-c5ccnn5C)cc4C3)c12` [Compound 56, 5-methyl-4-[3-(2-methylpyrazol-3-yl)-7,8-dihydro-5H-1,6-naphthyridin-6-yl]furo[2,3-d]pyrimidine], the Emax at 30 µM amounted to 74% and the EC50 came out at 80 nM.

In the case of `FC(F)(F)c1cnc2c(c1)CN(c1nc(Cl)nc3c1CCC3)CC2` [Compound 57, 6-(2-chloro-6,7-dihydro-5H-cyclopenta[d]pyrimidin-4-yl)-3-(trifluoromethyl)-7,8-dihydro-5H-1,6-naphthyridine], the Emax at 30 µM worked out at 69% and the EC50 is 100 nM.

For `FC(F)(F)c1cnc2c(c1)CN(c1nc(C3CC3)nc3c1CCC3)CC2` [Compound 58, 6-(2-cyclopropyl-6,7-dihydro-5H-cyclopenta[d]pyrimidin-4-yl)-3-(trifluoromethyl)-7,8-dihydro-5H-1,6-naphthyridine], the Emax at 30 µM amounted to 88% and the EC50 came out at 1480 nM.

Take `Cc1nc2c(c(N3CCc4ncc(C(F)(F)F)cc4C3)n1)CCC2` [Compound 59, 6-(2-methyl-6,7-dihydro-5H-cyclopenta[d]pyrimidin-4-yl)-3-(trifluoromethyl)-7,8-dihydro-5H-1,6-naphthyridine]: the Emax at 30 µM came to 87% and the EC50 was found to be 1030 nM.

In the case of `Cn1ncc2ncnc(N3CCc4ncc(C(F)(F)F)cc4C3)c21` [Compound 60, 6-(1-methylpyrazolo[4,3-d]pyrimidin-7-yl)-3-(trifluoromethyl)-7,8-dihydro-5H-1,6-naphthyridine], the Emax at 30 µM came to 31% and the EC50 was 6060 nM.

Consider `Cn1ccc2c(N3CCc4ncc(C(F)(F)F)cc4C3)ncnc21` [Compound 61, 6-(7-methylpyrrolo[2,3-d]pyrimidin-4-yl)-3-(trifluoromethyl)-7,8-dihydro-5H-1,6-naphthyridine], for which the Emax at 30 µM is 80% and the EC50 is 830 nM.

For the compound `FC(F)(F)c1cnc2c(c1)CN(c1nc(Cl)nc3c1COC3)CC2` [Compound 62, 2-chloro-4-[3-(trifluoromethyl)-7,8-dihydro-5H-1,6-naphthyridin-6-yl]-5,7-dihydrofuro[3,4-d]pyrimidine], the Emax at 30 µM turned out to be 58% and the 50% effective concentration (EC50) stood at 3290 nM.

Turning to `Clc1nc2c(c(N3CCc4ncc(N5CCOc6ncccc65)cc4C3)n1)COC2` [Compound 63, 1-[6-(2-chloro-5,7-dihydrofuro[3,4-d]pyrimidin-4-yl)-7,8-dihydro-5H-1,6-naphthyridin-3-yl]-2,3-dihydropyrido[2,3-b][1,4]oxazine], the Emax at 30 µM is 56% and the EC50 was found to be 370 nM.

With `Clc1nc2c(c(N3CCc4ncc(N5CCCn6nccc65)cc4C3)n1)COC2` [Compound 64, 2-chloro-4-(3-(6,7-dihydropyrazolo[1,5-a]pyrimidin-4(5H)-yl)-7,8-dihydro-1,6-naphthyridin-6(5H)-yl)-5,7-dihydrofuro[3,4-d]pyrimidine], the Emax at 30 µM is 62% and the EC50 was 300 nM.

For `C[C@@H]1CN(c2cnc3c(c2)CN(c2nc(Cl)nc4c2COC4)CC3)CCO1` [Compound 65, (R)-2-chloro-4-(3-(2-methylmorpholino)-7,8-dihydro-1,6-naphthyridin-6(5H)-yl)-5,7-dihydrofuro[3,4-d]pyrimidine], the Emax at 30 µM is 35% and the EC50 was found to be 3260 nM.
